Measured values as given in PMC12951568, “Identifying Structural Factors Governing the Photodynamic Activity of Phthalocyanines” (Journal of Medicinal Chemistry, 2026).
Where two headings read alike, the source gives them in different places.

Legend:
[1] = Absorption and fluorescence emission spectra in DMF; format: physicochemical; conditions: in DMF
Experimental: (§1) An absorption spectrum of 2.475 mL of solvent (water, DMF, or PBS) was taken (i.e., absorption spectrum of baseline); then, 25 μL of stock solution was added to reach the final concentration of 1 μM in the cuvette, and the absorption and emission spectra were taken. Baseline of the solvent was subtracted from the obtained absorption spectrum to get the final absorption spectrum of the sample.

[2] = Fluorescence quantum yield, comparative method; format: physicochemical; conditions: in DMF; ZnPc as reference
How it was run: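 ΦF determined by the comparative method against ZnPc (ΦF 0.32 in THF), using integrated emission area, absorbance at the excitation wavelength and solvent refractive index. Q-band absorbance kept below 0.05; estimated error ± 15%.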

[3] = Fluorescence lifetime in DMF; format: physicochemical
Source text: 1 Photophysical Data of Investigated Derivatives in DMF ^a | column: τF1/ns; τF2/ns

[4] = Quantum yield of singlet oxygen production, comparative method with DPBF scavenger; format: physicochemical; conditions: in DMF, ZnPc as reference
How it was run: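 Dye added from 100 μM DMF stock (or DMF/water, water); irradiated under stirring with xenon lamp through water filter and OG530 cut-off (>523 nm). DPBF decay followed at 415 nm; ΦΔ from ln(A0/At) slopes versus reference, normalised to absorbed light summed over 523–850 nm; triplicate means, ±10% error.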

[5] = Log P, partition between n-octanol and PBS; format: physicochemical; conditions: partition coefficient between 1-octanol and PBS
How it was run: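 Sample from 100 μM stock added to equal volumes of n-octanol and PBS, vortexed 5 min at rt, centrifuged. Each layer diluted into DMF and emission spectra recorded; log P taken as log of octanol/PBS integrated fluorescence ratio, mean of triplicates.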

[6] = molecular target: bovine serum albumin (BSA) (Bos taurus, UniProt P02769); assay: Interaction with bovine serum albumin (absorption and emission spectra in PBS); format: binding; conditions: 1 μM Pc in PBS, BSA 17.5, 35 and 100 μM
bovine serum albumin (BSA), sequence (P02769 25-607): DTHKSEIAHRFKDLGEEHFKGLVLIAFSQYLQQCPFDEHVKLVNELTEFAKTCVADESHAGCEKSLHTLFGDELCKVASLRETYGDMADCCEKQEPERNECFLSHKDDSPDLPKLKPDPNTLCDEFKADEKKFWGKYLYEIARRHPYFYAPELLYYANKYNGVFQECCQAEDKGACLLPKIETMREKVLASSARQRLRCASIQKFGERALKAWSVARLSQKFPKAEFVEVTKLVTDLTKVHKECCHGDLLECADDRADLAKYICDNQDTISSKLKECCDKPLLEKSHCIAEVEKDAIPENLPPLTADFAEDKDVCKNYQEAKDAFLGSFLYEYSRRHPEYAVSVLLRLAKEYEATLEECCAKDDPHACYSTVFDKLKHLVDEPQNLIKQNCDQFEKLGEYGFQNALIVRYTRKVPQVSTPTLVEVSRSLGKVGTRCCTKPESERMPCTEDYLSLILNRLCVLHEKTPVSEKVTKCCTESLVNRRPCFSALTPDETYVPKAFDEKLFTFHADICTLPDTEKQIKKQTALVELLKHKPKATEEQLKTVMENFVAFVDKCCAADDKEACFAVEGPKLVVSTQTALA

[7] = tested on: HeLa (human cervical carcinoma); assay: Photodynamic activity (phototoxicity, neutral red uptake) on HeLa; format: cell-based; conditions: for EC50: 12 h incubation, Xe-lamp 15 min, λ > 570 nm, 11.2 J/cm^2, mean ± SD, t.w. = this work
Experimental: (§2) Detailed in vitro studies involving subcellular localization and determination of the EC50 in three different cell lines (human cervical carcinoma–HeLa, human breast adenocarcinoma–MCF-7, and human skin melanoma–SK-MEL-28) were performed. A broadband light source (ozone-free 450 W Xe-lamp, Newport) equipped with the long-pass filter Schott OG570 was used (12.4 mW/cm^2, 15 min, 11.2 J/cm^2).
(§3) For the cytotoxicity experiments (phototoxicity), cells were seeded at 100 μL per well into 96-well plates (TPP, Switzerland) at a density of 7.5 × 10^3 (HeLa) or 1.0 × 10^4 (MCF-7 and SK-MEL-28) cells per well. Cells were left to grow for 24 h (until they reached confluency) in a controlled environment of a CO2 incubator (37 °C, 5% CO2 atmosphere, constant high humidity). Subsequently, studied compounds were added in a wide concentration range and incubated with the cells for 12 h. Cells were washed; fresh cell culture medium was added, and the cells were irradiated using a 450 W Xe lamp (Newport, USA). The lamp was equipped with a long pass filter (Newport OG570) and an 8 cm water filter (λ > 570 nm, 12.4 mW/cm^2, 15 min, 11.2 J/cm^2). Cellular viability was assessed after an additional 24 h by the neutral red (NR; Sigma, Merck, USA) uptake assay. At least three independent experiments, each in triplicate, were performed. The soluble NR was measured at λ = 540 nm using a Tecan Infinite 200 M plate reader (Tecan, Austria). The viability of each experimental group was expressed as the percentage of the untreated cells (100% viability) after subtraction of the signal from cells treated with a lethal dose of hydrogen peroxide (0% viability). […] EC50 values were calculated, and graphs were created by using GraphPad Prism 10.3.1 (Graph Pad software, USA).

[8] = tested on: SK-MEL-28 (human skin melanoma); assay: Photodynamic activity (phototoxicity, neutral red uptake) on SK-MEL-28; format: cell-based; conditions: 12 h incubation, Xe-lamp 15 min, λ > 570 nm, 11.2 J/cm^2, mean ± SD, t.w. = this work
Experimental: as §2, §3

[9] = tested on: HeLa (human cervical carcinoma); conditions: 12 h incubation, Xe-lamp 15 min, λ > 570 nm, 11.2 J/cm^2; mean ± SD; determined previously under the same conditions at the same workplace and published; ref number not given; read-out: EC50 (nM) HeLa; cited from earlier work
[10] = tested on: MCF-7 (human breast adenocarcinoma); design: method as in number not printed in Table 2; conditions: 12 h incubation, Xe-lamp 15 min, λ > 570 nm, 11.2 J/cm^2; mean ± SD; determined previously under the same conditions at the same workplace and published; ref number not given; cited from earlier work
[11] = Aggregation / monomerization in aqueous media (spectra in water and PBS); format: physicochemical; conditions: 1 μM
Experimental: as §1

[12] = tested on: MCF-7 (human breast adenocarcinoma); assay: Photodynamic activity (phototoxicity, neutral red uptake) on MCF-7; format: cell-based; conditions: for EC50: 12 h incubation, Xe-lamp 15 min, λ > 570 nm, 11.2 J/cm^2, mean ± SD, t.w. = this work
Experimental: as §2, §3

[13] = ref number not given, cited from earlier work; for ΦΔ(EtOH): in EtOH

Row | Compound | λF, fluorescence emission maximum [1] | ΦF, fluorescence quantum yield [2] | τF1, fluorescence lifetime (relative amplitude in brackets) [3] | τF2, fluorescence lifetime (relative amplitude in brackets) [3] | ΦΔ, quantum yield of singlet oxygen production [4] | Log P [5] | EC50 [8] | EC50 [9] | EC50 [10] | ε, extinction coefficient [1] | λA, absorption maximum in the Q-band [1] | EC50 [12] | ΦΔ(EtOH) [13] | also measured
1 | O=C([O-])c1cc(Oc2cc3c(cc2Oc2cc(C(=O)[O-])cc(C(=O)[O-])c2)C2=Nc4c5ccccc5c5[n]4[Zn][n]4c(c6ccccc6c4=NC3=N2)=NC2=NC(=N5)c3ccccc32)cc(C(=O)[O-])c1.[Na+].[Na+].[Na+].[Na+] [A1Zn] | 682 nm | 0.035 | 0.44 (15%) ns | 2.51 (85%) ns | 0.26 | –2.70 | 530 ± 30 nM | 290 ± 78 nM | 453 ± 26 nM | – | – | – | – | Interaction with BSA: disaggregation/monomerization and changes in absorption and fluorescence emission spectra [6]: complete; fold higher photodynamic activity vs symmetrical hydrophilic counterparts ([7]; HeLa, unsymmetrical anionic A1Zn, A2Zn vs A3Zn, A4Zn): ~21
2 | Cc1cc(Cn2cc[n+](C)c2)c(Oc2c3c(c(C)c(C)[n+]2C)C2=NC3=Nc3c4ccccc4c4[n]3[Zn][n]3c(c5ccccc5c3=N2)=NC2=NC(=N4)c3ccccc32)c(Cn2cc[n+](C)c2)c1.[I-].[I-].[I-] [C1Zn] | 696 nm | 0.15 | – | – | 0.66 | 0.53 | 22 ± 3 nM | 27 ± 9 nM | 35 ± 2 nM | 100 240 M^–1cm^–1 | 689 nm | – | – | aggregation / monomeric state [11]: monomeric in DMF but are aggregated in PBS
3 | C[n+]1cccc(Oc2cc3c(cc2Oc2ccc[n+](C)c2)C2=Nc4c5cc(Oc6ccc[n+](C)c6)c(Oc6ccc[n+](C)c6)cc5c5[n]4[Zn][n]4c(c6cc(Oc7ccc[n+](C)c7)c(Oc7ccc[n+](C)c7)cc6c4=NC4=NC(=N5)c5cc(Oc6ccc[n+](C)c6)c(Oc6ccc[n+](C)c6)cc54)=NC3=N2)c1.[I-].[I-].[I-].[I-].[I-].[I-].[I-].[I-] [C6Zn] | 683 nm | 0.001 | 0.07 (3%) ns | 2.84 (97%) ns | 0.02 | –2.59 | 150 ± 50 nM | – | – | 41 730 M^–1cm^–1 | 681 nm | 110 ± 30 nM | – | aggregation / monomeric state [11]: did not sufficiently suppress aggregation; EC50 [7]: 58 ± 20 nM
4 | Cc1cc(Cn2cc[n+](C)c2)c(Oc2cc3c(cc2Oc2c(Cn4cc[n+](C)c4)cc(C)cc2Cn2cc[n+](C)c2)C2=Nc4c5cc(Oc6c(Cn7cc[n+](C)c7)cc(C)cc6Cn6cc[n+](C)c6)c(Oc6c(Cn7cc[n+](C)c7)cc(C)cc6Cn6cc[n+](C)c6)cc5c5[n]4[Zn][n]4c(c6cc(Oc7c(Cn8cc[n+](C)c8)cc(C)cc7Cn7cc[n+](C)c7)c(Oc7c(Cn8cc[n+](C)c8)cc(C)cc7Cn7cc[n+](C)c7)cc6c4=NC4=NC(=N5)c5cc(Oc6c(Cn7cc[n+](C)c7)cc(C)cc6Cn6cc[n+](C)c6)c(Oc6c(Cn7cc[n+](C)c7)cc(C)cc6Cn6cc[n+](C)c6)cc54)=NC3=N2)c(Cn2cc[n+](C)c2)c1.[I-].[I-].[I-].[I-].[I-].[I-].[I-].[I-].[I-].[I-].[I-].[I-].[I-].[I-].[I-].[I-] [C12Zn] | 687 nm | 0.20 | 0.62 (7%) ns | 2.23 (93%) ns | 0.48 | –2.08 | 45 ± 7 nM | 37 ± 6 nM | 11 ± 3 nM | 244 030 M^–1cm^–1 | 679 nm | – | – | increase in activity of C12Zn in comparison with C3Zn (fold) ([7]; HeLa cells): 1.3; increase in activity of C12Zn in comparison with C3Zn (fold) ([12]; MCF-7 cells): 2
5 | O=C([O-])c1c(Cl)c(Cl)c(Cl)c(Cl)c1-c1c2cc(I)c(=O)c(I)c-2oc2c(I)c([O-])c(I)cc12.[Na+].[Na+] [Rose Bengal] | – | – | – | – | – | – | – | – | – | – | – | – | – | ΦΔ of the reference standard ([13]; in DMF): 0.47
6 | C=Cc1c(C)c2cc3nc(cc4[nH]c(cc5nc(cc1[nH]2)C(C)=C5CCC(=O)O)c(CCC(=O)OC)c4C)[C@@]1(C)C3=CC=C(C(=O)OC)[C@H]1C(=O)OC [verteporfin, reference compound] | 696 nm | 0.18 | 6.05 ns | – | – | – | – | 36 ± 10 nM | – | – | 690 nm | – | 0.51–0.67 | logP ([5]; n-octanol/PBS buffer): 2.51; EC50 ([12]; Homo sapiens, MCF7, light or radiation study): 33 ± 3 nM; EC50 ([8]; Homo sapiens, SK-MEL-28, light or radiation study): 21 ± 3 nM
7 | protoporhyrin IX [PpIX, reference compound] | 634 nm | 0.12 | – | – | – | 1.06 | 6200 ± 300 nM | – | – | – | 630 nm | 5700 ± 800 nM | 0.51–0.67 | EC50 [7]: 5500 ± 600 nM
8 | temoporfin [reference compound] | 656 nm | 0.24 | 9.66 ns | – | – | 1.40 | 103 ± 17 nM | 45 ± 7 nM | – | – | 651 nm | 210 ± 74 nM | 0.51–0.67 | –
